One data set has as its target Beta-secretase 1 (Homo sapiens, UniProt P56817). As to the kind of experiment: Inhibition of human BACE1 expressed in Escherichia coli BL21(DE3) using Swedish mutant sequence Eu-EVNLDAEFK-Quencher substrate by homogeneous time resolved fluorescence assay.
Data set [1] in a line: Permeability across human Caco-2 cell membrane. In kind it is ADME, cell-based.
The next data set concerns the target Cathepsin D (Homo sapiens, UniProt P07339). As to the kind of experiment: Inhibition of human liver cathepsin D.

Structures are written as SMILES. Some results are limits rather than exact numbers.

Sequence of Beta-secretase 1 (P56817 whole entry): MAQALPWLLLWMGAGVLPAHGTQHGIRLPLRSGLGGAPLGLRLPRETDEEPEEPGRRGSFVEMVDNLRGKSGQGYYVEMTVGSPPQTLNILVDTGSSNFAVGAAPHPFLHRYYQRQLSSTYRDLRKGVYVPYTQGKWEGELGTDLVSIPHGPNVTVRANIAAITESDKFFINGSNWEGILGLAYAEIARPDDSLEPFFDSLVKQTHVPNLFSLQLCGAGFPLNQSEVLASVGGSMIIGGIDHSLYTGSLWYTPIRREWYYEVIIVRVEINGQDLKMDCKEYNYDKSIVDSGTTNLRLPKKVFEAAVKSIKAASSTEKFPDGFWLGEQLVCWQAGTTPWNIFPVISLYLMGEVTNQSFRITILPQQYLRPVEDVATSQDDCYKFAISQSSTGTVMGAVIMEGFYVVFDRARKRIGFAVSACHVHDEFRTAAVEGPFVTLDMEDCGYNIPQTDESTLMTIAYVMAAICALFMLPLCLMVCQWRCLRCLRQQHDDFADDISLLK
Sequence of Cathepsin D (P07339 65-162 limits assumed): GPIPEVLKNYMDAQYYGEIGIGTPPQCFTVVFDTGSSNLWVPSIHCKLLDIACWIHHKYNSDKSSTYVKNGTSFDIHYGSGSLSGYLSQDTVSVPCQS
Sequence of Cathepsin D (P07339 169-412 limits assumed): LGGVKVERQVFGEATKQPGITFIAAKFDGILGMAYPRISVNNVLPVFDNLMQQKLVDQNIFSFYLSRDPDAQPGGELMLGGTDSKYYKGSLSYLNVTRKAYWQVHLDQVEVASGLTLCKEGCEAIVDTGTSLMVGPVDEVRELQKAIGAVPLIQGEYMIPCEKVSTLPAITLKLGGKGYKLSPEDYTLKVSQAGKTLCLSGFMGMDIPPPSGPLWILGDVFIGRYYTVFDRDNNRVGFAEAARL

As for `CC(C)[C@H](NC(=O)CCC(O)(CCc1ccccc1)C(=O)Nc1cc(C(=O)N[C@H](C)c2ccc(F)cc2)cc(N(C)S(C)(=O)=O)c1)C(=O)NCc1ccccc1` (some centres undefined), the IC50 against Beta-secretase 1 was > 10 µM.

`C[C@@H](NC(=O)c1cc(NC(=O)CC[C@](O)(Cc2ccccc2)C(=O)N[C@H]2c3ccccc3C[C@H]2O)cc(N(C)S(C)(=O)=O)c1)c1ccccc1`: at Beta-secretase 1, the IC50 stood at 2.5 µM.

Consider `CC(C)[C@H](NC(=O)CCC(O)(Cc1ccccc1)C(=O)Nc1cc(C(=O)N[C@H](C)c2ccc(F)cc2)cc(N(C)S(C)(=O)=O)c1)C(=O)NCc1ccc(C(=O)O)cc1` (some centres undefined), for which the IC50 against Beta-secretase 1 is > 10 µM.

`C[C@@H](NC(=O)c1cc(NC(=O)CC[C@@](O)(Cc2ccccc2)C(=O)N[C@H]2c3ccccc3C[C@H]2O)cc(N(C)S(C)(=O)=O)c1)c1ccccc1` registered an IC50 against Beta-secretase 1 of 4.6 µM.

For the compound `CC(C)[C@H](NC(=O)C(O)(CCC(=O)Nc1cc(C(=O)N[C@H](C)c2ccccc2)cc(N(C)S(C)(=O)=O)c1)CCc1ccccc1)C(=O)NCc1ccccc1` (some centres undefined), the IC50 against Beta-secretase 1 was determined as 0.45 µM.

Turning to `CC(C)[C@H](NC(=O)CCC(O)(Cc1ccccc1)C(=O)Nc1cc(C(=O)N[C@H](C)c2ccc(F)cc2)cc(N(C)S(C)(=O)=O)c1)C(=O)Nc1ccc(C(=O)O)cc1` (some centres undefined), the IC50 at Beta-secretase 1 was > 10 µM.

`CC(C)[C@H](NC(=O)CCC(O)(Cc1ccccc1)C(=O)Nc1cc(C(=O)N[C@H](C)c2ccc(F)cc2)cc(N(C)S(C)(=O)=O)c1)C(=O)NCc1ccccc1` (some centres undefined) gave an IC50 against Beta-secretase 1 of 5.9 µM. This counts as single-digit micromolar.

The compound `COC(=O)c1ccc(NC(=O)[C@@H](NC(=O)CCC(O)(Cc2ccccc2)C(=O)Nc2cc(C(=O)N[C@H](C)c3ccc(F)cc3)cc(N(C)S(C)(=O)=O)c2)C(C)C)cc1` (some centres undefined) gave an IC50 against Beta-secretase 1 of 4 µM.

Consider `COC(=O)c1ccc(CNC(=O)[C@@H](NC(=O)CCC(O)(Cc2ccccc2)C(=O)Nc2cc(C(=O)N[C@H](C)c3ccc(F)cc3)cc(N(C)S(C)(=O)=O)c2)C(C)C)cc1` (some centres undefined), for which, at Beta-secretase 1, the IC50 was > 10 µM.

For the compound `CC(C)[C@H](NC(=O)CCC(O)(CCc1ccccc1)C(=O)Nc1cc(C(=O)N[C@H](C)c2ccccc2)cc(N(C)S(C)(=O)=O)c1)C(=O)NCc1ccccc1` (some centres undefined), the IC50 against Beta-secretase 1 came out at 5.6 µM.

For the compound `C[C@@H](NC(=O)c1cc(NC(=O)C(O)(CCC(=O)N[C@H]2c3ccccc3C[C@H]2O)Cc2ccccc2)cc(N(C)S(C)(=O)=O)c1)c1ccc(F)cc1` (some centres undefined), the IC50 on Beta-secretase 1 is > 10 µM.

As for `CC(C)[C@H](NC(=O)C(O)(CCC(=O)Nc1cc(C(=O)N[C@H](C)c2ccccc2)cc(N(C)S(C)(=O)=O)c1)CCc1ccccc1)C(=O)Nc1ccccc1` (single isomer, unassigned), it took 0.32 µM to reach half-maximal inhibition against Beta-secretase 1 (IC50).

On Beta-secretase 1, `C[C@@H](NC(=O)c1cc(NC(=O)CCC(O)(CCc2ccccc2)C(=O)N[C@H]2c3ccccc3C[C@H]2O)cc(N(C)S(C)(=O)=O)c1)c1ccccc1` (stereo in doubt; 36-(A)) returned an IC50 of 0.57 µM.

Turning to `C[C@@H](NC(=O)c1cc(NC(=O)CCC(O)(CCc2ccccc2)C(=O)N[C@H]2c3ccccc3C[C@H]2O)cc(N(C)S(C)(=O)=O)c1)c1ccccc1` (stereo in doubt; 37-(B)), in data set [1], the Papp is < 1 ×10⁻⁶ cm/s. This compound showed an IC50 against Beta-secretase 1 of 0.25 µM. Besides, the Ki at Cathepsin D is > 5 µM.

Take `CC(C)[C@H](NC(=O)C(O)(CCC(=O)Nc1cc(C(=O)N[C@H](C)c2ccccc2)cc(N(C)S(C)(=O)=O)c1)CCc1ccccc1)C(=O)Nc1ccccc1` (stereo in doubt; 39-(A)): in data set [1], the Papp stood at 1.2 ×10⁻⁶ cm/s. The compound further yielded an IC50 against Beta-secretase 1 of 0.23 µM. Besides, the Ki at Cathepsin D is > 5 µM.
